Test system: PTZ-induced clonic seizures
Assay: PTZ seizure test
Assay type: in vivo, mouse
Conditions: mice, ip, 60 min before PTZ 100 mg/kg sc
Method: For in vivo tests that assessed anticonvulsant properties of the test compounds 3a–3j adult male Albino Swiss (CD-1) mice weighing between 18 and 22 g were used. The animals were housed in groups of ten mice per cage at room temperature of 22 ± 2 °C, under light/dark (12:12) cycle. The animals had free access to food and tap water before the experiments. The ambient temperature of the experimental room and humidity (50 ± 10%) were kept consistent throughout all the tests. For behavioral experiments the animals were selected randomly. Each experimental group consisted of 4–8 animals/dose. The experiments were performed between 9 AM and 2 PM. Immediately after the in vivo assay the animals were euthanized by cervical dislocation. All procedures were approved by the Local Ethics Committee of the Jagiellonian University in Krakow (34/2018, 1.02.2018)) and the treatment of animals was in full accordance with ethical standards laid down in respective Polish and EU regulations (Directive No. 86/609/EEC). For in vivo tests the compounds 3a–3j were prepared in 1% Tween 80 solution (POCH, Poland) and they were administered by the intraperitoneal route. Control mice received 1% Tween 80. Pentylenetetrazole (PTZ), pilocarpine hydrochloride and scopolamine butylbromide were provided by Sigma Aldrich (Poland). For the tests they were prepared in 0.9% saline (Polfa Kutno, Poland). PTZ and pilocarpine were administered 60 min after the test compound or vehicle. To assess anticonvulsant properties of the test compounds anticonvulsant screening was conducted. Four assays were used: PTZ, maximal electroshock seizure (MES), 6-Hz and pilocarpine tests. In these assays the dose of 100 mg/kg was chosen as a starting dose. If it turned out to be effective, a lower dose (30 mg/kg) was also tested. The test was performed according to a method previously described (Sałat et al. [2005]). Clonic convulsions were induced by the subcutaneous (sc) administration of PTZ at a dose of 100 mg/kg. After PTZ injection, each mouse was immediately placed in a transparent Plexiglas cage (30 × 20 × 15 cm) and was observed during the next 30 min for the occurrence of clonic seizures. Clonic seizures were defined as clonus of the whole body lasting more than 3 s, with an accompanying loss of righting reflex. Latency time to first clonus and the number of seizure episodes were noted and compared between vehicle-treated and drug-treated groups.

SMILES	anticonvulsant activity in PTZ model
Clc1ccc(-c2csc(N/N=C/C3CC3)n2)cc1 [Compound 3c, (E)-4-(4-Chlorophenyl)-2-(2-(cyclopropylmethylene)hydrazinyl)thiazole]	not effective
FC(F)(F)c1ccc(-c2csc(N/N=C/C3CC3)n2)cc1 [Compound 3e, (E)-2-(2-(Cyclopropylmethylene)hydrazinyl)-4-(4-(trifluoromethyl)phenyl)thiazole]	not effective

Same assay, conditions: mice, ip, 60 min before PTZ 100 mg/kg sc; vs vehicle

SMILES	latency time to first clonus	number of seizure episodes
COc1ccc(-c2csc(N/N=C/C3CC3)n2)cc1 [Compound 3f, (E)-2-(2-(Cyclopropylmethylene)hydrazinyl)-4-(4-methoxyphenyl)thiazole]	significantly prolonged	reduced
[N-]=[N+]=Nc1ccc(-c2csc(N/N=C/C3CC3)n2)cc1 [Compound 3i, (E)-4-(4-Azidophenyl)-2-(2-(cyclopropylmethylene)hydrazinyl)thiazole]	significantly prolonged	reduced

Test system: not given
Assay: not given
Conditions: not given

SMILES	melting point
FC(F)(F)c1ccc(-c2csc(N/N=C/C3CC3)n2)cc1 [Compound 3e, (E)-2-(2-(Cyclopropylmethylene)hydrazinyl)-4-(4-(trifluoromethyl)phenyl)thiazole]	132 to 134 °C
COc1ccc(-c2csc(N/N=C/C3CC3)n2)cc1 [Compound 3f, (E)-2-(2-(Cyclopropylmethylene)hydrazinyl)-4-(4-methoxyphenyl)thiazole]	149 to 152 °C
[N-]=[N+]=Nc1ccc(-c2csc(N/N=C/C3CC3)n2)cc1 [Compound 3i, (E)-4-(4-Azidophenyl)-2-(2-(cyclopropylmethylene)hydrazinyl)thiazole]	124 to 126 °C

Other lines, results leading:

melting point	SMILES
165 to 167 °C	Brc1ccc(-c2csc(N/N=C/C3CC3)n2)cc1 [Compound 3b, (E)-4-(4-Bromophenyl)-2-(2-(cyclopropylmethylene)hydrazinyl)thiazole]
162 to 163 °C	Clc1ccc(-c2csc(N/N=C/C3CC3)n2)cc1 [Compound 3c, (E)-4-(4-Chlorophenyl)-2-(2-(cyclopropylmethylene)hydrazinyl)thiazole]

Test system: motor coordination
Assay: Rotarod test
Assay type: in vivo, mouse
Conditions: mice, 100 mg/kg, 60 min pretreatment; 6, 18 and 24 rpm
Method: For in vivo tests that assessed anticonvulsant properties of the test compounds 3a–3j adult male Albino Swiss (CD-1) mice weighing between 18 and 22 g were used. The animals were housed in groups of ten mice per cage at room temperature of 22 ± 2 °C, under light/dark (12:12) cycle. The animals had free access to food and tap water before the experiments. The ambient temperature of the experimental room and humidity (50 ± 10%) were kept consistent throughout all the tests. For behavioral experiments the animals were selected randomly. Each experimental group consisted of 4–8 animals/dose. The experiments were performed between 9 AM and 2 PM. Immediately after the in vivo assay the animals were euthanized by cervical dislocation. All procedures were approved by the Local Ethics Committee of the Jagiellonian University in Krakow (34/2018, 1.02.2018)) and the treatment of animals was in full accordance with ethical standards laid down in respective Polish and EU regulations (Directive No. 86/609/EEC). For in vivo tests the compounds 3a–3j were prepared in 1% Tween 80 solution (POCH, Poland) and they were administered by the intraperitoneal route. Control mice received 1% Tween 80. Pentylenetetrazole (PTZ), pilocarpine hydrochloride and scopolamine butylbromide were provided by Sigma Aldrich (Poland). For the tests they were prepared in 0.9% saline (Polfa Kutno, Poland). PTZ and pilocarpine were administered 60 min after the test compound or vehicle. To assess anticonvulsant properties of the test compounds anticonvulsant screening was conducted. Four assays were used: PTZ, maximal electroshock seizure (MES), 6-Hz and pilocarpine tests. In these assays the dose of 100 mg/kg was chosen as a starting dose. If it turned out to be effective, a lower dose (30 mg/kg) was also tested. The test was performed according to the method recently described (Sałat et al. [2005]). The mice were trained daily for 3 consecutive days on the rotarod apparatus (Rotarod apparatus, May Commat RR0711, Turkey; rod diameter: 2 cm) rotating at a constant speed of 18 rotations per minute (rpm). During each training session, the animals were placed on a rotating rod for 3 min with an unlimited number of trials. The proper experimentation was conducted 24 h after the final training trial. […] Motor impairments, defined as the inability to remain on the rotating rod for 1 min were measured and mean time spent on the rod was counted in each experimental group.

SMILES	motor coordination (time spent on rotarod)
Clc1ccc(-c2csc(N/N=C/C3CC3)n2)cc1 [Compound 3c, (E)-4-(4-Chlorophenyl)-2-(2-(cyclopropylmethylene)hydrazinyl)thiazole]	None of these compounds impaired motor skills
FC(F)(F)c1ccc(-c2csc(N/N=C/C3CC3)n2)cc1 [Compound 3e, (E)-2-(2-(Cyclopropylmethylene)hydrazinyl)-4-(4-(trifluoromethyl)phenyl)thiazole]	None of these compounds impaired motor skills
COc1ccc(-c2csc(N/N=C/C3CC3)n2)cc1 [Compound 3f, (E)-2-(2-(Cyclopropylmethylene)hydrazinyl)-4-(4-methoxyphenyl)thiazole]	None of these compounds impaired motor skills
[N-]=[N+]=Nc1ccc(-c2csc(N/N=C/C3CC3)n2)cc1 [Compound 3i, (E)-4-(4-Azidophenyl)-2-(2-(cyclopropylmethylene)hydrazinyl)thiazole]	None of these compounds impaired motor skills

Test system: pilocarpine-induced status epilepticus
Assay: Pilocarpine-induced seizures
Assay type: in vivo, mouse
Conditions: mice, 100 mg/kg ip, pilocarpine 400 mg/kg ip; post-hoc vs vehicle
Method: For in vivo tests that assessed anticonvulsant properties of the test compounds 3a–3j adult male Albino Swiss (CD-1) mice weighing between 18 and 22 g were used. The animals were housed in groups of ten mice per cage at room temperature of 22 ± 2 °C, under light/dark (12:12) cycle. The animals had free access to food and tap water before the experiments. The ambient temperature of the experimental room and humidity (50 ± 10%) were kept consistent throughout all the tests. For behavioral experiments the animals were selected randomly. Each experimental group consisted of 4–8 animals/dose. The experiments were performed between 9 AM and 2 PM. Immediately after the in vivo assay the animals were euthanized by cervical dislocation. All procedures were approved by the Local Ethics Committee of the Jagiellonian University in Krakow (34/2018, 1.02.2018)) and the treatment of animals was in full accordance with ethical standards laid down in respective Polish and EU regulations (Directive No. 86/609/EEC). For in vivo tests the compounds 3a–3j were prepared in 1% Tween 80 solution (POCH, Poland) and they were administered by the intraperitoneal route. Control mice received 1% Tween 80. Pentylenetetrazole (PTZ), pilocarpine hydrochloride and scopolamine butylbromide were provided by Sigma Aldrich (Poland). For the tests they were prepared in 0.9% saline (Polfa Kutno, Poland). PTZ and pilocarpine were administered 60 min after the test compound or vehicle. To assess anticonvulsant properties of the test compounds anticonvulsant screening was conducted. Four assays were used: PTZ, maximal electroshock seizure (MES), 6-Hz and pilocarpine tests. In these assays the dose of 100 mg/kg was chosen as a starting dose. If it turned out to be effective, a lower dose (30 mg/kg) was also tested. In this test the mice were pretreated with the investigated compound or vehicle and 60 min later they received pilocarpine (400 mg/kg, ip). To avoid cholinergic side-effects: peripheral toxicity and diarrhea, masticatory and stereotyped movements, animals treated with pilocarpine also received scopolamine butylbromide (1 mg/kg, ip) which was injected 45 min before pilocarpine. After the administration of the convulsant, the mice were observed during the next 60 min for behavioral changes. Latency time to the onset of status epilepticus was considered as the endpoint in this test (Wilhelm et al. [2010]).

SMILES	latency time to pilocarpine-induced status epilepticus
Clc1ccc(-c2csc(N/N=C/C3CC3)n2)cc1 [Compound 3c, (E)-4-(4-Chlorophenyl)-2-(2-(cyclopropylmethylene)hydrazinyl)thiazole]	did not show statistically significant anticonvulsant effects
FC(F)(F)c1ccc(-c2csc(N/N=C/C3CC3)n2)cc1 [Compound 3e, (E)-2-(2-(Cyclopropylmethylene)hydrazinyl)-4-(4-(trifluoromethyl)phenyl)thiazole]	did not show statistically significant anticonvulsant effects
COc1ccc(-c2csc(N/N=C/C3CC3)n2)cc1 [Compound 3f, (E)-2-(2-(Cyclopropylmethylene)hydrazinyl)-4-(4-methoxyphenyl)thiazole]	did not show statistically significant anticonvulsant effects
[N-]=[N+]=Nc1ccc(-c2csc(N/N=C/C3CC3)n2)cc1 [Compound 3i, (E)-4-(4-Azidophenyl)-2-(2-(cyclopropylmethylene)hydrazinyl)thiazole]	did not show statistically significant anticonvulsant effects

Reference: publication PMC6133161, “Thiazoles with cyclopropyl fragment as antifungal, anticonvulsant, and anti-Toxoplasma gondii agents: synthesis, toxicity evaluation, and molecular docking study” (Medicinal Chemistry Research, 2018)
